Data as given in ChEMBL document CHEMBL1914411, “Synthesis of lipophilic dimeric C-7/C-7-linked ciprofloxacin and C-6/C-6-linked levofloxacin derivatives. Versatile in vitro biological evaluations of monomeric and dimeric fluoroquinolone derivatives as potential antitumor, antibacterial or antimycobacterial agents” (Eur J Med Chem, 2011).
Converted amounts (≈) assume the structure as drawn. The source made the active and inactive calls. How the calls were made is not given here.

Assays:
Escherichia coli = test: Antimicrobial activity against Escherichia coli CIP 53126 after 18 to 24 hrs by broth microdilution method; format: functional
[1] = tested on: Mycobacterium tuberculosis; test: Antimycobacterial activity against Mycobacterium tuberculosis H37Rv assessed as growth inhibition at 0.1 uM after 6 days by MTT colorimetric microassay; format: functional, organism-based
Staphylococcus aureus [2] = test: Antimicrobial activity against methicillin-resistant Staphylococcus aureus ATCC 33591 after 18 to 24 hrs by broth microdilution method; format: functional
Staphylococcus aureus [3] = test: Antimicrobial activity against Staphylococcus aureus CIP 4.83 after 18 to 24 hrs by broth microdilution method; format: functional
Enterococcus hirae = test: Antimicrobial activity against Enterococcus hirae CIP 5855 after 18 to 24 hrs by broth microdilution method; format: functional
Staphylococcus aureus [4] = test: Antimicrobial activity against multidrug-resistant Staphylococcus aureus isolate 1 after 18 to 24 hrs by broth microdilution method; format: functional
[5] = Antiproliferative activity against human U373MG cells after 120 hrs by MTT asasy; format: functional, cell-based, U-373MG ATCC; settings: U373 MG
Staphylococcus aureus [6] = test: Antimicrobial activity against methicillin-resistant Staphylococcus aureus ATCC 33592 after 18 to 24 hrs by broth microdilution method; format: functional
MCF7 = test: Antiproliferative activity against human MCF7 cells after 120 hrs by MTT asasy; format: functional, cell-based; settings: MCF7, 120 h
Staphylococcus aureus [7] = test: Antimicrobial activity against multidrug-resistant Staphylococcus aureus isolate 2 after 18 to 24 hrs by broth microdilution method; format: functional
Pseudomonas aeruginosa = test: Antimicrobial activity against Pseudomonas aeruginosa CIP 82.118 after 18 to 24 hrs by broth microdilution method; format: functional
Staphylococcus aureus [8] = test: Ratio of ciprofloxacin MIC to compound MIC for multidrug-resistant Staphylococcus aureus isolate 1; format: functional
Staphylococcus aureus [9] = test: Ratio of ciprofloxacin MIC to compound MIC for multidrug-resistant Staphylococcus aureus isolate 2; format: functional
[10] = tested on: Mycobacterium tuberculosis; test: Antimycobacterial activity against Mycobacterium tuberculosis H37Rv after 6 days by MTT colorimetric microassay; format: functional, organism-based; settings: 144 h
[11] = tested on: Mycobacterium tuberculosis; test: Antimycobacterial activity against Mycobacterium tuberculosis H37Rv assessed as growth inhibition at 10 uM after 6 days by MTT colorimetric microassay; format: functional; settings: 144 h, read-out: GI
[12] = Solubility of compound in cell medium at 20 uM at 37 degC after 24 hrs; format: physicochemical
[13] = tested on: Mycobacterium tuberculosis; test: Antimycobacterial activity against Mycobacterium tuberculosis H37Rv assessed as growth inhibition at 1 uM after 6 days by MTT colorimetric microassay; format: functional; settings: 144 h, read-out: GI

Row | SMILES | MBC (Escherichia coli) [µM] | MIC (Escherichia coli) [µM] | growth inhibition (GI) [1] | MBC (Staphylococcus aureus [2]) [µM] | MIC (Staphylococcus aureus [2]) [µM] | MBC (Staphylococcus aureus [3]) [µM] | MIC (Staphylococcus aureus [3]) [µM] | MBC (Enterococcus hirae) [µM] | MIC (Enterococcus hirae) [µM] | MBC (Staphylococcus aureus [4]) [µM] | MIC (Staphylococcus aureus [4]) [µM] | IC50 [5] [µM] | MBC (Staphylococcus aureus [6]) [µM] | MBC (Staphylococcus aureus [7]) [µM] | MIC (Staphylococcus aureus [7]) [µM] | MBC (Pseudomonas aeruginosa) [µM] | MIC (Pseudomonas aeruginosa) [µM] | MIC [10] [µM] | inhibition of growth at 10 µM [11] [%] | inhibition of growth at 1 µM [13] [%] | further results
1 | O=C(O)c1cn(C2CC2)c2cc(N3CCN(C(=O)CCCCCCCCCCCCC(=O)N4CCN(c5cc6c(cc5F)c(=O)c(C(=O)O)cn6C5CC5)CC4)CC3)c(F)cc2c1=O | 500 (≈ 443 µg/mL) | 62.5 (≈ 55.3 µg/mL) | inactive | 3.9 (≈ 3.45 µg/mL) | 0.06 (≈ 0.0531 µg/mL) | 1.9 (≈ 1.68 µg/mL) | ≤ 0.12 | 500 (≈ 443 µg/mL) | 125 (≈ 111 µg/mL) | 500 (≈ 443 µg/mL) | 7.8 (≈ 6.9 µg/mL) | 5 | 0.97 (≈ 0.858 µg/mL) | 15.6 (≈ 13.8 µg/mL) | 7.8 (≈ 6.9 µg/mL) | 250 (≈ 221 µg/mL) | 62.5 (≈ 55.3 µg/mL) |  |  |  | MIC (Staphylococcus aureus [6]): 0.12 µM (≈ 0.106 µg/mL); IC50 (MCF7): 5 µM
2 | CCCC(=O)OCC(=O)N1CCN(c2cc3c(cc2F)c(=O)c(C(=O)O)cn3C2CC2)CC1 | 31.2 (≈ 14.3 µg/mL) | 31.2 (≈ 14.3 µg/mL) | inactive | 0.97 (≈ 0.446 µg/mL) | 0.48 (≈ 0.221 µg/mL) | ≤ 0.48 | ≤ 0.24 | ≤ 0.97 | ≤ 0.97 | 62.5 (≈ 28.7 µg/mL) | 15.6 (≈ 7.17 µg/mL) |  | 0.12 (≈ 0.0551 µg/mL) | 15.6 (≈ 7.17 µg/mL) | 15.6 (≈ 7.17 µg/mL) | 250 (≈ 115 µg/mL) | 62.5 (≈ 28.7 µg/mL) |  |  |  | Ratio (Staphylococcus aureus [8]): 2; MIC (Staphylococcus aureus [6]): 0.06 µM (≈ 0.0276 µg/mL); Ratio (Staphylococcus aureus [9]): 2
3 | C[C@H]1COc2c(N3CCN(C)CC3)c(F)cc3c(=O)c(C(=O)NCCCCCCNC(=O)c4cn5c6c(c(N7CCN(C)CC7)c(F)cc6c4=O)OC[C@@H]5C)cn1c23 | 62.5 (≈ 50.2 µg/mL) | 62.5 (≈ 50.2 µg/mL) | inactive |  |  | 500 (≈ 401 µg/mL) | 125 (≈ 100 µg/mL) | 125 (≈ 100 µg/mL) | 125 (≈ 100 µg/mL) |  |  |  |  |  |  | 250 (≈ 201 µg/mL) | 62.5 (≈ 50.2 µg/mL) | > 10 | 60 |  | 
4 | O=C(CCCCCCCCCCCCC(=O)OCN1CCN(c2cc3c(cc2F)c(=O)c(C(=O)O)cn3C2CC2)CC1)OCN1CCN(c2cc3c(cc2F)c(=O)c(C(=O)O)cn3C2CC2)CC1 | 62.5 (≈ 59.1 µg/mL) | 31.2 (≈ 29.5 µg/mL) | inactive | 3.9 (≈ 3.69 µg/mL) | 0.97 (≈ 0.917 µg/mL) | ≤ 0.97 | ≤ 0.97 | 15.6 (≈ 14.7 µg/mL) | 15.6 (≈ 14.7 µg/mL) | 250 (≈ 236 µg/mL) | 62.5 (≈ 59.1 µg/mL) | 3 | 0.48 (≈ 0.454 µg/mL) | 62.5 (≈ 59.1 µg/mL) | 31.2 (≈ 29.5 µg/mL) | 125 (≈ 118 µg/mL) | 62.5 (≈ 59.1 µg/mL) |  | 87 |  | IC50 (MCF7): 9 µM
5 | C[C@H]1COc2c(N3CCN(C)CC3)c(F)cc3c(=O)c(C(=O)NCCCCCCCCCCNC(=O)c4cn5c6c(c(N7CCN(C)CC7)c(F)cc6c4=O)OC[C@@H]5C)cn1c23 | ≤ 0.97 | ≤ 0.97 | inactive |  |  | 7.8 (≈ 6.7 µg/mL) | 7.8 (≈ 6.7 µg/mL) | 62.5 (≈ 53.7 µg/mL) | 31.2 (≈ 26.8 µg/mL) |  |  |  |  |  |  | 62.5 (≈ 53.7 µg/mL) | 31.2 (≈ 26.8 µg/mL) | 5 (≈ 4.3 µg/mL) | 60 |  | solubility [12]: Insoluble; IC50 [10]: 2400 nM
6 | CCCCCCCCCC(=O)OCC(=O)N1CCN(c2cc3c(cc2F)c(=O)c(C(=O)O)cn3C2CC2)CC1 | 15.6 (≈ 8.48 µg/mL) | 15.6 (≈ 8.48 µg/mL) | inactive | 0.48 (≈ 0.261 µg/mL) | 0.24 (≈ 0.13 µg/mL) | ≤ 0.97 | ≤ 0.97 | 15.6 (≈ 8.48 µg/mL) | 7.8 (≈ 4.24 µg/mL) | 15.6 (≈ 8.48 µg/mL) | 7.8 (≈ 4.24 µg/mL) |  |  | 15.6 (≈ 8.48 µg/mL) | 7.8 (≈ 4.24 µg/mL) | 250 (≈ 136 µg/mL) | 31.2 (≈ 17 µg/mL) |  | > 95 |  | Ratio (Staphylococcus aureus [8]): 2; Ratio (Staphylococcus aureus [9]): 2
7 | CCCCCCCCCCNC(=O)c1cn2c3c(c(N4CCN(C)CC4)c(F)cc3c1=O)OC[C@@H]2C | 500 (≈ 250 µg/mL) | 125 (≈ 62.6 µg/mL) | inactive |  |  | 7.8 (≈ 3.91 µg/mL) | 7.8 (≈ 3.91 µg/mL) | 15.6 (≈ 7.81 µg/mL) | 7.8 (≈ 3.91 µg/mL) |  |  |  |  |  |  | 250 (≈ 125 µg/mL) | 62.5 (≈ 31.3 µg/mL) | 10 (≈ 5.01 µg/mL) | > 95 | 5 | IC50 [10]: 5800 nM
8 | CCCCCCCCCCCC(=O)N1CCN(c2cc3c(cc2F)c(=O)c(C(=O)O)cn3C2CC2)CC1 | 7.8 (≈ 4.01 µg/mL) | 7.8 (≈ 4.01 µg/mL) | inactive |  |  | 7.8 (≈ 4.01 µg/mL) | 3.9 (≈ 2 µg/mL) | 7.8 (≈ 4.01 µg/mL) | 7.8 (≈ 4.01 µg/mL) |  |  |  |  |  |  | 250 (≈ 128 µg/mL) | 62.5 (≈ 32.1 µg/mL) |  | > 95 | 20 | 
9 | CCCC(=O)OCOC(=O)c1cn2c3c(c(N4CCN(C)CC4)c(F)cc3c1=O)OC[C@@H]2C |  |  | inactive |  |  |  |  |  |  |  |  |  |  |  |  |  |  | 2.5 (≈ 1.15 µg/mL) | > 95 | 74 | IC50 [10]: 1300 nM
10 | CCCCCCCCCC(=O)N1CCN(c2cc3c(cc2F)c(=O)c(C(=O)O)cn3C2CC2)CC1 | 500 (≈ 243 µg/mL) | 125 (≈ 60.7 µg/mL) | inactive |  |  | 62.5 (≈ 30.4 µg/mL) | 7.8 (≈ 3.79 µg/mL) | 15.6 (≈ 7.58 µg/mL) | 15.6 (≈ 7.58 µg/mL) |  |  | 5 |  |  |  | 250 (≈ 121 µg/mL) | 125 (≈ 60.7 µg/mL) |  | > 95 | 20 | 
